Target: T1, DcaPTrunc (Acinetobacter baumannii, UniProt A0A0D5YFT0)
T1 sequence (A0A0D5YFT0 89-434): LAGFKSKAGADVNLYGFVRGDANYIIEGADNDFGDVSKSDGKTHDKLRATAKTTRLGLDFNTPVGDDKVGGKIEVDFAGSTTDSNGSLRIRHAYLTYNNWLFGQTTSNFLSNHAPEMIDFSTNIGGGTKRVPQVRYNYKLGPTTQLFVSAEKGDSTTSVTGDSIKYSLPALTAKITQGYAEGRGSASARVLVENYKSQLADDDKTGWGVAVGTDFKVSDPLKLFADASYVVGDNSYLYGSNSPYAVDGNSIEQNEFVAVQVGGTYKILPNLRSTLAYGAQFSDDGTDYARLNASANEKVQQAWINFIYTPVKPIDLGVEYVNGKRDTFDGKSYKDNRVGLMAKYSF
Test: biochemical

Structure (SMILES): O=C(O)c1ccccc1C(=O)O [o-phthalic acid]
- Kd: ~9 mM

Reference: doi:10.1101/306035v1 (biorxiv, 2018)
